Results taken from US11001795B2, “In vitro gastrointestinal model comprising lamina propria-derived cells” (EMULATE, Inc., priority 2016, dated 2021).
Entries after “also recorded” stand apart in the source; their conditions may differ.

Assays:
[1] = test system: Ulcerative Colitis patients; conditions: cited from earlier work
[2] = test system: Caco-2/HUVEC/LPDC microfluidic co-cultures; experiment: Cytokine and chemokine production in microfluidic co-cultures with LP derived cells; format: cell-based, human
Procedure: An exemplary bacteria antigen used was PAM2CSK4. […] PAM2CSK4 refers to a synthetic diacylated lipopeptide.
In order to determine contributory factors to the trends in permeability changes observed by combinations of prednisone treatments as in Example 5, cytokine and chemokine production were measured from media samples obtained from the microfluidic cultures as described in Example 5. After an incubation time, media samples were extracted from the microfluidic device then used for determining amounts of cytokine and chemokine produced, such as IL-6 and IL-9 in FIG. 18A-B; IL-8 and G-CSF in FIG. 19A-B; GM-CSF and MCP-1 in FIG. 20A-B: MIP1b and PDGF-AB/BB in FIG. 21A-B; and RANTES in FIG. 22. Amounts of cytokine and chemokine protein are measure in pg/ml (picogram per milliliter).

[3] = test system: Intestine On-Chip with TH1 or TH9 cells; experiment: Cytokine production in Intestine On-Chip seeded with plate-differentiated TH1 or TH9 cells; format: cell-based, human; conditions: for IL-10: TH9 populations; for IL-6 protein: untreated vs PAM2CSK4 treated with and without Tofacitinib
From the text: In this example, a TH1 cell population was produced from a population of mature/naive CD4+ T cells, as described in Example 7. This population of CD4+ T cells were co-stimulated with adhered CD3 and soluble CD28 antibodies, without added cytokines, for inducing differentiation of TH1 cells on plates. Unlike co-stimulation with adhered CD3 and soluble CD28 antibodies in the presence of TGFB, IL-4, and IFNg cytokines which induced differentiation of TH9 cells, as described herein. Thus, in this example, purified CD4+ T cell populations were plated into tissue culture plates for activation and differentiation into one selected T cell subtype, e.g. TH1 in one plate, and TH9 in another plate.
In order to further test whether PBMCs activated and differentiated with soluble factors were capable of inducing inflammation on chips, pro-inflammatory cytokine production was compared between untreated, PAM2CSK4 treated with and without Tofacitinib.
Experiments were designed to evaluate whether anti-CD3 and anti-CD28 co-stimulatory activation (soluble reagents) on chip would stimulate on chip T cells (previously activated and differentiated on plates) to continue functioning as activated effector cells within the chip tissue microenvironment. Further, TH1 and TH9 T cell populations underwent testing for an exacerbated response (either tissue alterations or changes in the characteristics of the T cell population) to a specific antigen stimulation, e.g. PAM2CSK4 (TLR2) bacterial agonist, with or without additional co-stimulation (i.e. using soluble reagents). Stimulation on-chip was done as a treatment on Day 7 of culture.
Evaluation of the effects of T-cell activation on the Intestine On-Chip by perfusion of soluble immune activating factors (anti-CD3 and anti-CD28) to the media is shown in FIGS. 36A-B-39A-C. In particular, activated T-cell subsets were evaluated for disease-specific cytokine production.
T cell subsets were purified from PBMCs as described herein, then stimulated in tissue culture plates using plate bound CD3 and soluble CD28 antibodies.

[4] = test system: Caco-2 epithelial cell layer; format: cell-based, human
From the text: See an exemplary permeability assay method in Example 4.
Effects of resident leukocytes isolated from LP

[5] = test system: UC patient's resident immune cells; experiment: 24 hour bacterial challenge of resident immune cells cultured on-plates, secreted cytokines; format: cell-based, human; conditions: immune cells from inflamed UC tissue, 24 hour challenge
[6] = test system: TH1 and TH9 CD4+ T cell populations; experiment: Bacterial antigen stimulation of TH1 and TH9 populations on cell culture plates; format: cell-based, human
Procedure: Purified human CD4+ cells in tissue culture media, comprising soluble anti-human CD28 mAb (e.g. PharMingen, San Diego, Calif.), were added to CD3 coated plastic tissue culture plates for non-antigen-specific activation. Co-stimulation of the CD3 transmembrane signaling complex and the T cell CD28 molecule results in nonantigen specific stimulation of the TCR (CD3). After three days of incubation, the default T cell population is considered a TH1 population. After three days of co-stimulation, with or without added cytokines, cells are pipetted out of the plates, the plates are washed with media or PBS to remove any remaining cells, then harvested cells are washed at least 3 times to remove cell fragments and culture reagents, prior to use of the activated T cell population for seeding microfluidic chips on Day 0 of the chip timeline.
In this example, a TH1 cell population was produced from a population of CD4+ T cells obtained from a sample of PBMCs. This population of CD4+ T cells were co-stimulated with soluble CD3 and CD28 antibodies without added cytokine stimulation for inducing differentiation of TH1 cells. Unlike the co-stimulation with soluble CD3 and CD28 antibodies in the presence of TGFB, IL-4, and IFNg cytokines for inducing differentiation of TH9 cells as described herein.
A sample of each TH cell type was exposed to PAM2CSK4, then log 2 fold changes in protein expression of either pathway molecules or IL-9 were measured and compared to duplicate samples not treated with PAM2CSK4.

[7] = prednisone alone, non-inflamed LPDC
[8] = prednisone, inflamed LPDCs, with and without PAM2CSK4
[9] = prednisone, non-inflamed and inflamed LPDCs treated with PAM2CSK4

From the text for Caco-2 epithelial layer: The following exemplary protocol outlines the sterilization/functionalization, coating, media wash, and cell seeding steps for preparing the Intestine-on-Chip with epithelial cells, e.g. Caco-, human primary epithelial cells, etc., HUVECs, and resident immune cells from lamina propria-derived cells.
An exemplary experimental chip culture schedule is presented as a timeline starting from Day 0 (seeding chips) by adding HUVEC cells and lamina propria-derived cells; Day 1 was seeding a top layer of epithelial cells and connecting to a flow system; by Day 7 treatments, such as adding PAM2CSK4; and starting Day 8 testing layers and/or removing samples for further analysis. A sample such as effluent was tested for cytokine section from cells. Other samples removed were histological samples for fixation and ICC (immunocytochemistry) such as for determining cellular appearance, determination of tight junction integrity, such as by staining for actin, ZO-1, intracellular cytokine co-localization, etc, and physiological testing, such as migration of particles through the extracellular regions of the epidermal layer. Additional tests may include RNA isolation for determining gene expression levels, such as for proteins involved with tight junction formation, cytokine expression, etc.
The chips treated with PAM2CSK4 as a model bacterial antigen are considered infected chips. […]

Q: Which Treated patients non-responsive ([1]; Ulcerative Colitis patients) does the source give for `C[C@]12C=CC(=O)C=C1CC[C@@H]1[C@@H]2C(=O)C[C@@]2(C)[C@H]1CC[C@]2(O)C(=O)CO` [prednisone] here?
A: Its Treated patients non-responsive is “around 16%”.

Q: What about the “Treated patients with full remission” value ([1]; Ulcerative Colitis patients) of the same molecule?
A: Its value is 54%.

Q: What about the “Treated patients with partial remission” value ([1]; Ulcerative Colitis patients) of the same molecule?
A: The value was 30%.

Q: And the “Undesirable Side Effects” value ([1]; in vivo)?
A: Its value is “increased Risk of infection, Weight gain, Hyperglycemia, Hypertension, Bone loss”.

Q: What about the PDGF-AA/BB production ([2]; prednisone alone) of the same molecule?
A: Its PDGF-AA/BB production is “did not appear to be a reduction in PDGF-AA/BB”.

Q: What about the IL-8 production ([2]; prednisone alone or PAM2CSK4, non-inflamed LPDC) of the same molecule?
A: Its IL-8 production is “did not appear to be a reduction in IL-8”.

Q: And the GM-CSF production [2, 7]?
A: Its GM-CSF production is “did not appear to be a reduction in GM-CSF”.

Q: What about the MCP-1 production [2, 7] of the same molecule?
A: The MCP-1 production was “did not appear to be a reduction in MCP-1”.

Q: And the GM-CSF production [2, 8]?
A: Its GM-CSF production is “reduced GM-CSF production”.

Q: What about the IL-8 production [2, 8] of the same molecule?
A: The IL-8 production was “trend for reducing IL-8 production”.

Q: What about the MCP-1 production [2, 8] of the same molecule?
A: The MCP-1 production was “reduced MCP-1 production”.

Q: And the IL-6 production ([2]; prednisone, inflamed UC LPDC, endogenous or PAM2CSK4 induced)?
A: Its IL-6 production is “reduce IL-6 production”.

Q: What about the IL-6 production ([2]; prednisone, non-inflamed LPDCs) of the same molecule?
A: Its IL-6 production is “does not appear to have an effect”.

Q: And the PDGF-AA/BB production ([2]; prednisone, non-inflamed LPDCs (printed in the MIP-1b section))?
A: The PDGF-AA/BB production was “trend for reducing PDGF-AA/BB production”.

Q: And the MIP-1b production ([2]; prednisone, non-inflamed and inflamed LPDCs (stated in heading only))?
A: The MIP-1b production was “Tends to Reduce MIP-1b Production”.

Q: And the PDGF-AA/BB production [2, 9]?
A: The PDGF-AA/BB production was “trend for reducing PDGF-AA/BB production”.

Q: What about the RANTES production [2, 9] of the same molecule?
A: Its RANTES production is “trend for reducing RANTES production”.

Q: And the IL-9 production ([2]; prednisone, non-inflamed and inflamed UC LPDC, regardless of PAM2CSK4)?
A: The IL-9 production was “production is reduced; also recorded: significantly reduced”.

Q: And the G-CSF production ([2]; prednisone, non-inflamed or inflamed LPDCs, with and without PAM2CSK4)?
A: The G-CSF production was “trend for reducing G-CSF production”.

Q: What about the “Inflammatory responses (secreted cytokines) to PAM2CSK4 treatment” value ([2]; prophylactic prednisone on-chip, noninflamed and inflamed UC resident immune cells) of the same molecule?
A: Its value is “suppresses the inflammatory responses”.

Q: For PAM2CSK4, which IL-10 ([3]; unstimulated vs Pam stimulated) is on record?
A: The IL-10 was “no insignificant differences”.

Q: What about the IL-8 ([3]; antigen specific stimulation (PAM2CSK4) on-chip) of the same molecule?
A: The IL-8 was “increased”.

Q: And the IL-6 protein [3]?
A: The IL-6 protein was “no significant differences”.

Q: What about the “Avg. Z Height (z-arrow) of Caco-2 epithelial layer” value (Caco-2 epithelial layer) of the same molecule?
A: The value was 84 um+/−11.

Q: What about the “Permeability of Caco-2 epithelial cell layer” value [4] of the same molecule?
A: Its value is “increase in permeability”.

Q: What about the “Loss of barrier function” value ([4]; PAM2CSK4 treatment, overnight incubation, 4 LP mil/ml) of the same molecule?
A: The value was “Loss of barrier function is shown”.

Q: And the “IL-9 production, apical” value ([2]; PAM2CSK4, 1 and 2 LP mil/ml)?
A: The value was “increased”.

Q: And the “IL-9 production, basal” value ([2]; PAM2CSK4, 4 LP mil/ml)?
A: The value was “higher level of IL-9 production”.

Q: What about the IL-9 production ([2]; PAM2CSK4, LP leukocyte co-cultures for each source) of the same molecule?
A: Its IL-9 production is “induce IL-9”.

Q: What about the IL6 response ([2]; PAM2CSK4, epithelial cells without LP) of the same molecule?
A: Its IL6 response is “induce an IL6 response”.

Q: What about the IL6 response ([2]; PAM2CSK4, healthy LP leukocyte co-cultures) of the same molecule?
A: The IL6 response was “induce an IL6 response”.

Q: And the IL-6 production ([2]; PAM2CSK4, inflamed LPDC samples)?
A: Its IL-6 production is “increased IL-6 production”.

Q: And the IL-6 production ([2]; PAM2CSK4, non-inflamed LPDC samples)?
A: The IL-6 production was “does not appear to have an effect”.

Q: And the IL-9 production ([2]; PAM2CSK4, non-inflamed and inflamed UC LPDC co-cultures, over endogenous levels)?
A: Its IL-9 production is “significantly induced IL-9 production”.

Q: What about the IL-6 production ([2]; PAM2CSK4 at 1, 2 and 4 LP mil/ml vs co-cultures with no PAM2CSK4) of the same molecule?
A: Its IL-6 production is “higher level of IL-6 production”.

Q: And the “Response (secreted cytokines) to PAM2CSK4” value [5]?
A: The value was “stronger response”.

Q: What about the “Concentration of cytokine protein signaling” value ([6]; PAM2CSK4, TH1 (CD) and TH9 (UC) cells on-plates) of the same molecule?
A: Its value is “increases in the concentration of cytokine protein signaling”.

Q: And the IL-9 ([6]; PAM2CSK4 stimulation, TH1 populations)?
A: Its IL-9 is “measurable; also recorded: did significantly increase”.

Q: What about the IRF4 ([6]; PAM2CSK4 stimulation, TH1 populations, log 2 fold change) of the same molecule?
A: The IRF4 was “measurable”.

Q: And the “IL-9, or IL-9 activation factors, log 2 fold changes” value ([6]; PAM2CSK4 stimulation, TH9 populations in tissue culture plate)?
A: The value was “did not significantly increase”.

Q: Which results are given for Tofacitinib (citrate)?
A: IL-10 ([3]; mixture of PAM2CSK4 and Tofacitinib vs unstimulated cells): induced significant amounts; IL-6 protein [3]: no significant differences
